# According to US9193717B2, “Mineralocorticoid receptor antagonists” (Merck Sharp & Dohme Corp., priority 2011, dated 2015):
# Target: T1, full-length human Mineralocorticoid Receptor (MR) (Homo sapiens, UniProt P08235)
# T1 construct: full-length human Mineralocorticoid Receptor (MR); host or cells: PathHunter CHO-K1 cells
# T1 sequence (P08235 1-984): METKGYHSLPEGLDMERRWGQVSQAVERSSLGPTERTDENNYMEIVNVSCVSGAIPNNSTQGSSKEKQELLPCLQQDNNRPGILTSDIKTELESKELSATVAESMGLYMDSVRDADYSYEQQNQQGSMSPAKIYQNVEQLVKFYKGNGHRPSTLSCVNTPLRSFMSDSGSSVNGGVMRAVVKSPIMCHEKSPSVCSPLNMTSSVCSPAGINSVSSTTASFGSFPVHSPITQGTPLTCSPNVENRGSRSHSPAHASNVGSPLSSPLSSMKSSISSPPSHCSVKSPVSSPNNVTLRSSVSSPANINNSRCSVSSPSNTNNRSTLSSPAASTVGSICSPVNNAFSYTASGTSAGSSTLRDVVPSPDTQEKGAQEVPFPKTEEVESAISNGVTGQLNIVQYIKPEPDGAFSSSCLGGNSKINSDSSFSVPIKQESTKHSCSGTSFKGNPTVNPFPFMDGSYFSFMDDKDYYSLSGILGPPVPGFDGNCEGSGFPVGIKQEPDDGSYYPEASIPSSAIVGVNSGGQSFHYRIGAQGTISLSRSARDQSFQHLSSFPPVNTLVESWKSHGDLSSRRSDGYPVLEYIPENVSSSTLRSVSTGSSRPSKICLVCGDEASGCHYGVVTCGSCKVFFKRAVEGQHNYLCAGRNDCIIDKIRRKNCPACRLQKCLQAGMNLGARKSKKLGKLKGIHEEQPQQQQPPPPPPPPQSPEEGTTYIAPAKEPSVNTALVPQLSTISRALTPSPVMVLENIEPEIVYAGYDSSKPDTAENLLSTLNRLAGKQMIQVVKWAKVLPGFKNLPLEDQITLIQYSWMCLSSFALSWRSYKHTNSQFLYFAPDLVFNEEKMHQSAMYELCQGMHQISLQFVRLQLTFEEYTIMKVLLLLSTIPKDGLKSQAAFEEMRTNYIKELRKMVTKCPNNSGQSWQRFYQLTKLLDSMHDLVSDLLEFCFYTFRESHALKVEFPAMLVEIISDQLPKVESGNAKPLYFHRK
# Experiment: human MR NH Pro assay (PathHunter Protein:Protein interaction assay, MR antagonism)
# Format: cell-based
# Settings: PathHunter CHO-K1 cells that overexpress human MR; aldosterone (0.3 nM), 6 hours at 37° C.; antagonist mode; read-out: IC50 rating
# Procedure: The activity of the compounds of the present invention regarding mineralocorticoid receptor antagonism was evaluated using the following assay.
# Assessment of Mr Potency in HMR NH Pro Assay
# The human MR NH Pro assay is a commercially available PathHunter™ Protein:Protein interaction assay (DiscoveRx; http://www.discoverx.com/nhrs/prod-nhrs.php) that measures the ability of compounds to antagonize full-length human Mineralocorticoid Receptor (MR) binding to a coactivator peptide. PathHunter™ CHO—K1 cells that overexpress human MR (Cat #93-0456C2, Lot No: 09B0913) were cultured in growth media (F12K w/Glutamine and phenol red (Gibco 11765-047) supplemented with 10% HI FBS (Gibco 16000); 0.25 mg/ml Hygromycin in PBS (Invitrogen 10687-010, 50 mg/ml); 100 I.U./mL and 100 μg/mL Pen/Strep (Gibco 15140-122); 0.6 mg/mL Geneticin).
# Compounds were assessed for MR antagonist activity by incubating the cells with a titrating dose of compound in F12K w/Glutamine and phenol red culture media (Invitrogen 11765-047) supplemented with 1% Charcoal/Dextran Treated FBS (Hyclone #SH30068.01) and aldosterone (0.3 nM) for 6 hours at 37° C. […] Growth Media: • F12K w/Glutamine and phenol red (Gibco 11765-047) • 10% HI FBS (Gibco 16000) • 0.25 mg/ml Hygromycin in PBS (Invitrogen 10687-010, 50 mg/ml) • 100 I.U./mL and 100 μg/mL Pen/Strep (Gibco 15140-122) • 0.6 mg/mL Geneticin (Gibco 10131, 50 mg/ml) • 2. Assay Media: • F12K w/Glutamine and phenol red (Invitrogen 11765-047) • 1% Charcoal/Dextran Treated FBS (Hyclone #SH30068.01) • 3. 3× PathHunter Detection Reagents (Cat#93-0001) (need ˜6 ml/plate). […] Control Agonist:Aldosterone:Sigma cat# A9477 • Prepare stock solution-10 μM in DMSO kept at −20° C. • for assay, dilute in assay media to 1.8 or 6 nM (6× of final concentration=about 0.3 nM to about 1.0 nM) • 5. Cell line: PathHunter CHO—K1 MR cells Cat #93-0456C2, Lot No: 09B0913, from operation liquid nitrogen stock. • 6. Control Antagonist:Spironolactone:Sigma #S-3378 and Eplerenone Sigma #107724-20-9 (10 mM stock concentration also prepared in DMSO and stored at −20° C.). • Methods: • Assay Set up and Calculations: • 1. Cells were grown in F12+FBS+Hygromycin+pen/strep+Genetin • 2. Cells were collected with 0.05% trypsin and the cell suspension was spun and resuspended in a volume of F12+1.5% CD-FBS and counted. • 3. The cells were resuspended to 4×10^5 cells/mL. • 4. Cells were (25 μL/well) added to the wells of a 384 well plate. • 5. The plate was then incubated at 37° C. over night in a humidified incubator with 5% CO2. • 6. Test compounds were titrated starting at 4.4 mM, 10-point titration in 1:3 dilution. • 7. Aldosterone was diluted in assay media to 1.8 nM or 6 nM from 10 μM stock (final concentration to be about 0.3 nM to about 1.0 nM). • Protocol for 384 Well Plate Format: 6 Hr Treatment: • 1. Plated 10K exponentially growing cells/well (25 μL) resuspended in assay media to each well using the Multidrop (Thermo Electron) (use white wall, clear bottom assay plates (Costar #3570) and incubate overnight at 37° C., 5% CO2. • 2. 0.25 μL 120× test compound (final DMSO concentration should be <1%) was added to each well n=2, 10 point titrations starting at 36.7 μM final concentration. • 3. 5 μL 6× agonist (final aldosterone concentration should be about 0.3 nM to about 1.0 nM) was added to all wells using the PlateMate Plus.
# (ThermoFisher) (except those wells in columns 23 and 24) • 4. 5 μL of assay media was added to all wells in column 23 and 24. • 5. Plates were incubated 6 hrs at 37° C., 5% CO2. • 6. 15 μL 3× DiscoveRx detection reagent was added to each well. • 7. Plates were incubated for 1 hour at room temperature (plates stored in the dark). • 8. Plates were read on Envision (PerkinElmer) luminesence plate reader and analyzed using ADA.
row,SMILES,IC50 [nM]
1,"C[C@H](c1ccccc1)N1C(=O)N[C@](Cc2ccccc2)(c2nc3ccc(Cl)cc3[nH]2)C1=O (single isomer, unassigned) [Compound 38]",500 to 2000
2,"C[C@H](c1ccc(F)cc1)N1C(=O)O[C@](Cc2ccccc2)(c2nc3ccccc3[nH]2)C1=O [Compound 3, (5R)-5-(1H-Benzimidazol-2-yl)-5-benzyl-3-[(1R)-1-(4-fluorophenyl)ethyl]-1,3-oxazolidine-2,4-dione]",100 to 500
3,"C[C@H](c1ccc(F)cc1)N1C(=O)O[C@](Cc2ccccc2)(c2nc3cc(OC(F)(F)F)ccc3[nH]2)C1=O [Compound 4, (5R)-5-Benzyl-3-[(1R)-1-(4-fluorophenyl)ethyl]-5-[5-(trifluoromethoxy)-1H-benzimidazol-2-yl]-1,3-oxazolidine-2,4-dione]",100 to 500
4,"COC(=O)c1ccc2nc([C@@]3(Cc4ccccc4)OC(=O)N([C@H](C)c4ccc(F)cc4)C3=O)[nH]c2c1 [Compound 5, Methyl 2-{(5R)-5-benzyl-3-[(1R)-1-(4-fluorophenyl)ethyl]-2,4-dioxo-1,3-oxazolidin-5-yl}-1H-benzimidazole-5-carboxylate]",100 to 500
5,"C[C@H](c1ccc(F)cc1)N1C(=O)O[C@](Cc2ccccc2)(c2nc3cc(-n4cnnn4)ccc3[nH]2)C1=O [Compound 6, (5R)-5-Benzyl-3-[(1R)-1-(4-fluorophenyl)ethyl]-5-[6-(1H-tetrazol-1-yl)-1H-benzimidazol-2-yl]-1,3-oxazolidine-2,4-dione]",100 to 500
6,"C[C@H](c1ccc(F)cc1)N1C(=O)O[C@](Cc2ccccc2)(c2nc3ccc(CN4CCOCC4)cc3[nH]2)C1=O [Compound 10, (5R)-5-Benzyl-3-[(1R)-1-(4-fluorophenyl)ethyl]-5-[5-(morpholinylmethyl)-1H-benzimidazol-2-yl]-1,3-oxazolidine-2,4-dione]",100 to 500
7,"O=C1O[C@](Cc2ccccc2)(c2nc3ccc(Cl)cc3[nH]2)C(=O)N1[C@@H]1CCc2ccccc21 [Compound 13, (5R)-5-Benzyl-5-(5-chloro-1H-benzimidazol-2-yl)-3-[(1R)-2,3-dihydro-1H-inden-1-yl]-1,3-oxazolidine-2,4-dione]",100 to 500

# Now from value to compound:
row,IC50 [nM],SMILES
1,100 to 500,"C[C@H](c1ccc(F)cc1)N1C(=O)O[C@](Cc2ccccc2)(c2nc3cc(Cl)ccc3[nH]2)C1=O [Compound 1, (5R)-5-Benzyl-5-(5-chloro-1H-benzimidazol-2-yl)-3-[(1R)-1-(4-fluorophenyl)ethyl]-1,3-oxazolidine-2,4-dione]"
2,100 to 500,"C[C@H](c1ccc(F)cc1)N1C(=O)O[C@](Cc2ccccc2)(c2nc3cc(F)ccc3[nH]2)C1=O [Compound 2, (5R)-5-Benzyl-5-(5-fluoro-1H-benzimidazol-2-yl)-3-[(1R)-1-(4-fluorophenyl)ethyl]-1,3-oxazolidine-2,4-dione]"
3,< 100,"C[C@H](c1ccc(F)cc1)N1C(=O)O[C@](Cc2ccccc2)(c2nc3cc(C(F)(F)F)ccc3[nH]2)C1=O [Compound 8, (5R)-5-Benzyl-3-[(1R)-1-(4-fluorophenyl)ethyl]-5-[5-(trifluoromethyl)-1H-benzimidazol-2-yl]-1,3-oxazolidine-2,4-dione]"
4,< 100,"C[C@H](c1ccc(F)cc1)N1C(=O)O[C@](Cc2ccccc2)(c2nc3cc(N4CCOCC4)ccc3[nH]2)C1=O [Compound 9, (5R)-5-Benzyl-3-[(1R)-1-(4-fluorophenyl)ethyl]-5-(5-morpholin-4-yl-1H-benzimidazol-2-yl)-1,3-oxazolidine-2,4-dione]"
5,< 100,"CC(C1CCC(F)(F)CC1)N1C(=O)O[C@](Cc2ccccc2)(c2nc3ccc(Cl)cc3[nH]2)C1=O (stereo partly drawn) [Compound 11, (5R)-5-Benzyl-5-(6-chloro-1H-benzimidazol-2-yl)-3-[1-(4,4-difluorocyclohexyl)ethyl]-1,3-oxazolidine-2,4-dione]"
6,< 100,"C[C@H](C1CCCCC1)N1C(=O)O[C@](Cc2ccccc2)(c2nc3ccc(Cl)cc3[nH]2)C1=O [Compound 12, (5R)-5-Benzyl-5-(5-chloro-1H-benzimidazol-2-yl)-3-[(1R)-1-cyclohexylethyl]-1,3-oxazolidine-2,4-dione]"
